Data from patent US9339471B2, “Long acting dual release product containing carbinoxamine and pseudoephedrine” (E5 PHARMA, LLC, priority 2007, dated 2016).
Read-outs that look alike come from different tables or passages of the source. Marks after values point to notes of the source that are not given here.

How the values were obtained:
[1] = cited from earlier work; for AUC(0-t): AUC0-24
[2] = cited from earlier work; for AUC(0-t): AUC0-6
[3] = Single dose bioavailability study in the non-fasted state, 4 mg immediate release carbinoxamine maleate tablet; format: in vivo; set-up: Plasma concentration of carbinoxamine: unit not given here; settings: nonfasted; for AUC(0-t) / Cmax / MRT / Tmax / half-life / AUC: human, plasma, po, 4 mg; for AUC: read-out: AUC0-
Description: A single dose bioavailability study was also undertaken in the non-fasted state using 4 mg immediate release carbinoxamine maleate tablets formulated in an immediate release format. Samples were taken over a forty eight hours period after administration of the drug with heparinized tubes. Breakfast was ingested thirty minutes before administration.
FIG. 2 is a mean plasma concentration-time profile of carbinoxamine after administering the 4 mg carbinoxamine maleate immediate release tablet in the non-fasted state from time 0 to time 48 hours. Graph (A) is the linear ordinate; graph (B) is the log-linear ordinate. FIG. 3 is an overlay of mean plasma concentration-time profiles of carbinoxamine administered under nonfasted and fasted conditions from time 0 to 48 hours, as reported in Example 3. Graph (A) is an overlay in the linear ordinates for the two conditions; graph (B) is an overlay in the log-linear ordinates for the two conditions.

[4] = Literature 1 (Stockis et al. 1992): bioavailability of 8 mg aqueous solution and 8 mg retard capsule of carbinoxamine; settings: in vivo, normalized to 4 mg dose
Description: The pharmacokinetics of carbinoxamine maleate have been reported in the literature. Stockis et al., Arzneim.-Forsch 1992, 42(12):1478-81, studied the bioavailability of an 8 mg aqueous solution of carbinoxamine and an 8 mg retard capsule of carbinoxamine.
A single dose fasted bioavailability study was undertaken using four milligram immediate release carbinoxamine maleate tablets formulated in an immediate release format. Samples were taken over a forty eight hours period after administration of the drug, and the first meal was allowed to be ingested four hours after administration. Table 3 compares the observed pharmacokinetics from this test to those observed by Stockis et al. in Arzneim.-Forsch 1992, 42(12):1478-81, and Stockis et al. in Arzneim.-Forsch 1995, 45(9) 1009-1012.

[5] = Literature 1, Aqueous solution 8 mg
[6] = Literature 1, Retard capsule 8 mg
[7] = 4 mg retard capsule, single administration
[8] = 4 mg retard capsule, successive administrations
[9] = Literature 2, Aqueous solution 4 mg
[10] = Literature 2, Retard capsule 4 mg
[11] = Literature 2, Retard capsule SS 4 mg, steady-state (q12 h)
[12] = po, Literature 1, Retard capsule 8 mg

In the case of `CN(C)CCOC(c1ccc(Cl)cc1)c1ccccn1` (stereo not drawn) [carbinoxamine, 2-[(4-chlorophenyl)-2-pyridinylmethoxy]-N,N-dimethylethanamine (Z)-2-butenedioate (1:1)], the Cmax ([1]; 8 mg aqueous solution) is listed as 24 ng/mL, the half-life ([1]; 8 mg aqueous solution) is listed as 10.6 h and the Cmax ([1]; 8 mg retard capsule) is listed as 16.9 ng/mL. The Tmax ([1]; 8 mg retard capsule) was 8 h, the half-life ([1]; 8 mg retard capsule) was 14.5 h and the AUC(0-t) [1, 5] was 386^b ng/ml * h. For the same compound, the Cmax [1, 5] was 24 ng/mL, the T1/2 [1, 5] was 10.6 h and the AUC(0-t) [1, 6] was 238^b ng/ml * h. The Cmax [1, 6] was 16.9 ng/mL, the T1/2 [1, 6] was 14.5 h and the Cmax [2, 7] was 4.5 ng/mL. For the same compound, the Tmax [2, 7] was 6.2 h, the half life [2, 7] was 30 h and the Cmax [2, 8] was 13.5 ng/mL. The Tmax [2, 8] was 4.8 h, the half life [2, 8] was 22 h and the AUC(0-t) [2, 9] was 64^c ng/ml * h. For the same compound, the Cmax [2, 9] was 6.5 ng/mL, the T1/2 [2, 9] was 15 h and the Tmax [2, 9] was 2.6 h. The AUC(0-t) [2, 10] was 57^c ng/ml * h, the Cmax [2, 10] was 4.5 ng/mL and the T1/2 [2, 10] was 30 h. The Tmax [2, 10] was 6.2 h, the “AUC0-* ·” value [2, 11] was 125 ng·h/mL and the Cmax [2, 11] was 13.5 ng/mL. The T1/2 [2, 11] was 22 h, the Tmax [2, 11] was 4.8 h and the AUC(0-t) ([3]; Mean) was 212 ng·h/mL. The Cmax ([3]; Mean) was 12.6 ng/mL, the MRT ([3]; Mean) was 26.9 h and the Tmax ([3]; Mean) was 2.67 h. It also gave a half-life ([3]; Mean) of 19 h, an AUC ([3]; Mean) of 260 ng·h/mL and an AUC(0-t) ([3]; subject 101) of 175 ng·h/mL. The Cmax ([3]; subject 101) was 8.11 ng/mL, the MRT ([3]; subject 101) was 25.6 h and the Tmax ([3]; subject 101) was 4 h. The half-life ([3]; subject 101) was 17.1 h, the AUC ([3]; subject 101) was 206 ng·h/mL and the AUC(0-t) ([3]; subject 102) was 292 ng·h/mL. It also gave a Cmax ([3]; subject 102) of 18.9 ng/mL, an MRT ([3]; subject 102) of 31.7 h and a Tmax ([3]; subject 102) of 2 h. For the same compound, the half-life ([3]; subject 102) was 22.9 h, the AUC ([3]; subject 102) was 178 ng·h/mL and the AUC(0-t) ([3]; subject 103) was 170 ng·h/mL. For the same compound, the Cmax ([3]; subject 103) was 10.7 ng/mL, the MRT ([3]; subject 103) was 23.4 h and the Tmax ([3]; subject 103) was 2 h. The half-life ([3]; subject 103) was 16.9 h, the AUC ([3]; subject 103) was 196 ng·h/mL and the “Plasma concentration of carbinoxamine” value ([3]; 0 h, subject 101T) was “blq”. The “Plasma concentration of carbinoxamine” value ([3]; 0 h, subject 102T) was “blq”, the “Plasma concentration of carbinoxamine” value ([3]; 0 h, subject 103T) was “blq” and the “Plasma concentration of carbinoxamine” value ([3]; 0.5 h, T-Mean) was 1415.00. The “Plasma concentration of carbinoxamine” value ([3]; 0.5 h, subject 101T) was 1190.29, the “Plasma concentration of carbinoxamine” value ([3]; 0.5 h, subject 102T) was 1371.47 and the “Plasma concentration of carbinoxamine” value ([3]; 0.5 h, subject 103T) was 1683.25. For the same compound, the “Plasma concentration of carbinoxamine” value ([3]; 1 h, T-Mean) was 9391.48, the “Plasma concentration of carbinoxamine” value ([3]; 1 h, subject 101T) was 5017.55 and the “Plasma concentration of carbinoxamine” value ([3]; 1 h, subject 102T) was 15948.51. The “Plasma concentration of carbinoxamine” value ([3]; 1 h, subject 103T) was 7208.39, the “Plasma concentration of carbinoxamine” value ([3]; 2 h, T-Mean) was 12274.78 and the “Plasma concentration of carbinoxamine” value ([3]; 2 h, subject 101T) was 7279.95. The “Plasma concentration of carbinoxamine” value ([3]; 2 h, subject 102T) was 18873.34, the “Plasma concentration of carbinoxamine” value ([3]; 2 h, subject 103T) was 10671.05 and the “Plasma concentration of carbinoxamine” value ([3]; 3 h, T-Mean) was 10596.92. For the same compound, the “Plasma concentration of carbinoxamine” value ([3]; 3 h, subject 101T) was 7409.87, the “Plasma concentration of carbinoxamine” value ([3]; 3 h, subject 102T) was 14981.55 and the “Plasma concentration of carbinoxamine” value ([3]; 3 h, subject 103T) was 9399.33. For the same compound, the “Plasma concentration of carbinoxamine” value ([3]; 4 h, T-Mean) was 9957.93, the “Plasma concentration of carbinoxamine” value ([3]; 4 h, subject 101T) was 8113.91 and the “Plasma concentration of carbinoxamine” value ([3]; 4 h, subject 102T) was 12868.20. For the same compound, the “Plasma concentration of carbinoxamine” value ([3]; 4 h, subject 103T) was 8891.67, the “Plasma concentration of carbinoxamine” value ([3]; 5 h, T-Mean) was 9064.58 and the “Plasma concentration of carbinoxamine” value ([3]; 5 h, subject 101T) was 7450.78. The “Plasma concentration of carbinoxamine” value ([3]; 5 h, subject 102T) was 11670.11, the “Plasma concentration of carbinoxamine” value ([3]; 5 h, subject 103T) was 8072.86 and the “Plasma concentration of carbinoxamine” value ([3]; 6 h, T-Mean) was 8311.90. For the same compound, the “Plasma concentration of carbinoxamine” value ([3]; 6 h, subject 101T) was 7053.79, the “Plasma concentration of carbinoxamine” value ([3]; 6 h, subject 102T) was 10649.47 and the “Plasma concentration of carbinoxamine” value ([3]; 6 h, subject 103T) was 7232.44. For the same compound, the “Plasma concentration of carbinoxamine” value ([3]; 8 h, T-Mean) was 7184.22, the “Plasma concentration of carbinoxamine” value ([3]; 8 h, subject 101T) was 6458.92 and the “Plasma concentration of carbinoxamine” value ([3]; 8 h, subject 102T) was 8834.94. For the same compound, the “Plasma concentration of carbinoxamine” value ([3]; 8 h, subject 103T) was 6258.79, the “Plasma concentration of carbinoxamine” value ([3]; 12 h, T-Mean) was 5363.07 and the “Plasma concentration of carbinoxamine” value ([3]; 12 h, subject 101T) was 4676.58. The “Plasma concentration of carbinoxamine” value ([3]; 12 h, subject 102T) was 7186.93, the “Plasma concentration of carbinoxamine” value ([3]; 12 h, subject 103T) was 4225.70 and the “Plasma concentration of carbinoxamine” value ([3]; 24 h, T-Mean) was 3869.18. The “Plasma concentration of carbinoxamine” value ([3]; 24 h, subject 101T) was 3297.38, the “Plasma concentration of carbinoxamine” value ([3]; 24 h, subject 102T) was 5400.86 and the “Plasma concentration of carbinoxamine” value ([3]; 24 h, subject 103T) was 2909.31. The “Plasma concentration of carbinoxamine” value ([3]; 36 h, T-Mean) was 2453.59, the “Plasma concentration of carbinoxamine” value ([3]; 36 h, subject 101T) was 2197.69 and the “Plasma concentration of carbinoxamine” value ([3]; 36 h, subject 102T) was 3336.26. The “Plasma concentration of carbinoxamine” value ([3]; 36 h, subject 103T) was 1826.88, the “Plasma concentration of carbinoxamine” value ([3]; 48 h, T-Mean) was 1650.44 and the “Plasma concentration of carbinoxamine” value ([3]; 48 h, subject 101T) was 1249.68. The “Plasma concentration of carbinoxamine” value ([3]; 48 h, subject 102T) was 2616.93, the “Plasma concentration of carbinoxamine” value ([3]; 48 h, subject 103T) was 1084.70 and the AUC(0-t) [4, 12] was 119 ng·h/mL. The Cmax [4, 12] was 8.45 ng/mL, the AUC(0-t) [4, 5] was 143 ng·h/mL and the Cmax [4, 5] was 12 ng/mL.
